# “Also recorded” adds a separate entry of the source.
# Test system: C26 colorectal carcinoma liver metastases
# Assay: Mouse model of hepatic ischemia/reperfusion (I/R)-accelerated outgrowth of C26 colorectal liver metastases
# Format: in vivo, mouse (male Balb/C)
# Conditions: for ratio of hepatic replacement area (HRA) values in ischemic (clamped) left liver lobes versus non-ischemic right and median liver lobes: FIG. 4, I/R-subjected mice, day 10, sham about 1, untreated I/R about 2.5-fold; for accelerated (necrosis-associated) tumor growth in the clamped left liver lobes following I/R: left lobar I/R on day 5, livers day 10, ZM241385 1 micro-g/kg bolus + 10 ng/kg/min minipump, 3 days
# Description: A mouse model has been enabled in which selective temporary occlusion of blood flow into the left liver lobe results in a profound acceleration of tumor growth in the clamped liver lobes, but not in the unclamped liver lobes. An A2A receptor agonist was then studied to determine its effect on the accelerated tumor growth.
# • Male Balb/C mice (10-12 weeks) are housed under standard laboratory conditions with free access to water and chow and a 12-hour dark-light cycle. 2. Before the Experiment: Cell Culture • The murine colon carcinoma cell line C26 is cultured in Dulbecco's modified Eagle's medium supplemented with 5% heat-inactivated fetal calf serum, penicillin (100 units/ml) and streptomycin (100 μg/ml) in a 5% carbon dioxide environment. 3. Day 0: Induction of Liver Metastases • Confluent cultures of the C26 cell line are harvested by brief trypsinization (0.05 trypsin in 0.02% EDTA). • After centrifugation, single cell suspensions are prepared in PBS to a final concentration of 5×10^4 cells/100 μl. • Cell viability is determined by trypan blue staining, and should be ≧98%. • The induction of liver metastases is performed under inhalation anesthesia with a 1.5-2% isoflurane/O2 mixture using a mask. • Buprenorfine (3 μg/mouse) is administered intramuscularly prior to surgery to provide sufficient intra- and postoperative analgesia. • Surgical procedures are performed under aseptic conditions. • Body temperature is maintained at 36.5-37.5° C. by placing the animals on a heated table and covering them by aluminium foil. • Through a left lateral flank incision, 5×10^4 C26 colorectal carcinoma cells are injected into the splenic parenchyma (within an hour after trypsinisation). • After ten minutes, the spleen is removed to prevent intrasplenic tumor growth. • After the procedure a small amount of saline is left in the abdominal cavity and the peritoneum and skin are separately closed with 5.0 vicryl. • Animals are allowed to recover from anesthesia under standard laboratory conditions and are allowed free access to water and chow. 4. Day 0-5: • Micrometastases are allowed to develop throughout the liver for 5 days. 5. Day 5: Marine Model of Hepatic I/R • The induction of hepatic I/R is performed under inhalation anesthesia with a 1.5-2% isoflurane/O2 mixture using a mask. • Buprenorfine (3 μg/mouse) is administered intramuscularly prior to surgery to provide sufficient intra- and postoperative analgesia. • Surgical procedures are performed under aseptic conditions. • Body temperature is maintained at 36.5-37.5° C. by placing the animals on a heated table and covering them by aluminium foil. • ATL-313 solutions are prepared and suspended in osmotic minipumps (Alzet) at a dose of 3 ng/kg/min. Minipumps are placed in normal saline at 37° C. for at least 4 hours prior to the operation, to allow immediate drug delivery. • After laparotomy, mice receive an intraperitoneal bolus injection of 1 ng/kg ATL-313. • A control group received the A2AR antagonist ZM241385 as an intraoperative bolus (1 micro-g/kg) and subsequently continuously using osmotic intraperitoneal minipumps (10 ng/kg/min; 3 days). • Sham operated mice undergo laparotomy with exposure of the liver but without interruption of hepatic flow. • Partial hepatic I/R is induced by occluding the vascular inflow of the left lateral liver lobe for 45 minutes, corresponding to approximately 40% of the liver mass. • Surgical foil is placed over the laparotomy wound to avoid dehydration. • After removal of the clamps a small amount of saline is left in the abdominal cavity • The peritoneum and skin are separately closed with 5.0 vicryl. 6. Day 5-10: • Micrometastases are allowed to grow out to macrometastases (approximately 10-20% of the non-clamped lobes at day 10) for 5 days 7. Day 10: • Livers were harvested, fixed in formalin, and embedded in paraffin. Tissue sections were stained with H&E and the following parameters were assessed by an operator who was blinded to treatment. • 1. […]
# [1] = ATL-313 1 ng/kg bolus + 3 ng/kg/min minipump
Compound,ratio of hepatic replacement area (HRA) values in ischemic (clamped) left liver lobes versus non-ischemic right and median liver lobes,"tissue necrosis (liver) (left lobar I/R on day 5 (45 min clamping), livers harvested day 10, H&E, ATL-313 1 ng/kg i.p. bolus + 3 ng/kg/min osmotic minipump)",accelerated (necrosis-associated) tumor growth in the clamped left liver lobes following I/R [1],"accelerated (necrosis-associated) tumor growth in the clamped left liver lobes following I/R (ATL-313 1 ng/kg bolus + 3 ng/kg/min minipump, listed as ATL)","inflammation following I/R (left lobar I/R on day 5, ATL-313 1 ng/kg bolus + 3 ng/kg/min minipump)"
"COC(=O)N1CCC(CC#Cc2nc(N)c3ncn(C4OC(C(=O)NC5CC5)C(O)C4O)c3n2)CC1 (stereo not shown) [ATL313, 4-{3-[6-Amino-9-(5-cyclopropylcarbamoyl-3,4-dihydroxy-tetrahydro-furan-2-yl)-9H-purin-2-yl]-prop-2-ynyl}-piperidine-1-carboxylic Acid methyl ester]",1,prevents; also recorded: almost completely prevented,prevents; also recorded: almost completely prevented,prevents the increase in tumor growth,almost completely prevented
"Nc1nc(NCCc2ccc(O)cc2)nc2nc(-c3ccco3)nn12 [ZM241385, reference compound]","increasing the left-to-right/median ratio, although this difference did not reach statistical significance",–,appears to aggravate tumor growth,–,–
